Here are results for 39 compounds from US20130184280A1, “SUBSTITUTED THIAZOLES AS VEGFR2 KINASE INHIBITORS” (TELIK, INC., priority 2011, published 2013).

Some results are limits rather than exact numbers.

A short description of data set [1]: In Vitro Cytotoxicity Assay HCT116 (CellTiter-Glo). The data set is classed as cell-based. As to conditions: human, HCT116 colon carcinoma cells, cultured three days. On the procedure:
(§1) The cell lines HL60 (human promyelocytic leukemia) and HCT116 (human colon carcinoma) were obtained from the American Type Culture Collection, Manassas, Va., U.S.A. All products were used in accordance with manufacturer's directions. The cytotoxicity assays were conducted in triplicate, in each case with solvent control.
(§2) Log-phase cells were trypsinized, collected by centrifugation, and resuspended in a small volume of fresh medium, and the density of viable cells was determined following Trypan Blue staining Cells were diluted in fresh media, the test compounds (concentrations between 0.1 μM and 200 μM, dissolved in DMSO, 50 μL) added immediately after dilution to achieve a final DMSO concentration of 0.5%, then the suspensions added at 150 μL/well to 96-well plates, and incubated overnight to allow attachment in the case of adherent cells. The cells were cultured for three days (about three doubling times). The cells were then collected by centrifugation, and 100 μL of the culture supernatant was replaced by the CellTiter-Glo reagent. After incubation for 15 minutes at room temperature, the plate was read with a luminometer. […] The table gives cytotoxicity IC50s in μm.

The nature of data set [2]: In Vitro Cytotoxicity Assay HL60 (CellTiter-Glo). It counts as cell-based. As to conditions: human, HL60 promyelocytic leukemia cells; HL 60 cells, cultured three days. On the procedure: as §1, §2
A general note: In ATP-based viability assays light output follows the ATP content of the culture.

For the next data set, the target named is T1, VEGFR2 kinase (Homo sapiens, UniProt P35968).
T1 construct: purchased InVitrogen
T1 sequence (P35968 20-1356): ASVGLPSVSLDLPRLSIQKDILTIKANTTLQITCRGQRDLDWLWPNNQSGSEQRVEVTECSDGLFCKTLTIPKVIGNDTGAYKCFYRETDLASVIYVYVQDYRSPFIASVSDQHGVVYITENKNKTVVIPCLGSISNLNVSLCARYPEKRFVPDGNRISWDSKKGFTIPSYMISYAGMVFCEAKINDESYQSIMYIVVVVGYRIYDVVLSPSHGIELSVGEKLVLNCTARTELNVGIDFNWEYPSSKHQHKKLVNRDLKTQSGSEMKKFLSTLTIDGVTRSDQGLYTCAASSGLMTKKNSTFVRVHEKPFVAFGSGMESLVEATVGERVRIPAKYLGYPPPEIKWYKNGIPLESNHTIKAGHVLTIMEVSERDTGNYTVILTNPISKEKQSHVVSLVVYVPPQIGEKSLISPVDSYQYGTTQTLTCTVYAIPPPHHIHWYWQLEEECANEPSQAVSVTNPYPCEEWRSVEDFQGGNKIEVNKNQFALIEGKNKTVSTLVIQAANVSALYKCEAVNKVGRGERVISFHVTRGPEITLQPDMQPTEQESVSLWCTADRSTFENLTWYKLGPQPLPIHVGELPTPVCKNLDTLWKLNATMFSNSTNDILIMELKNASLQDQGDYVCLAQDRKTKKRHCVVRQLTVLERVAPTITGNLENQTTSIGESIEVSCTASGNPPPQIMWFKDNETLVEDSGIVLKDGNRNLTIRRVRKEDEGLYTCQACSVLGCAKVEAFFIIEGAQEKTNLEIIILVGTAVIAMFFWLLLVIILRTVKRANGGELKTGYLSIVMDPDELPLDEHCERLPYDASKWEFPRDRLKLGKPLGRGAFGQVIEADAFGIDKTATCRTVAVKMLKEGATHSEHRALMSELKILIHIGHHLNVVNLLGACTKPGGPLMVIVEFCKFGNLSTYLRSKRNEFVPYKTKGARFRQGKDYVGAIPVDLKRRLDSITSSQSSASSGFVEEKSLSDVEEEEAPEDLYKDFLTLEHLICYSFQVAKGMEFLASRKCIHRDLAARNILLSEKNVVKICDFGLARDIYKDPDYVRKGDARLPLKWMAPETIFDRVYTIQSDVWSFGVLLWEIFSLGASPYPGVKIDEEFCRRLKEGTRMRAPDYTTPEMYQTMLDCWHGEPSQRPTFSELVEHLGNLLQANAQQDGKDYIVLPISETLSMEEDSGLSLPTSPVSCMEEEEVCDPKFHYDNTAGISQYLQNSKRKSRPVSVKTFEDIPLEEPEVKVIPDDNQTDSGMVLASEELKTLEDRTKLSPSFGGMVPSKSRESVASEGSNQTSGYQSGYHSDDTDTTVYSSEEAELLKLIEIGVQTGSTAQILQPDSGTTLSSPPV
In words: In Vitro VEGFR2 Kinase Assay. The data set is classed as biochemical. To be noted: FP; CSKtide substrate, 60 minutes at room temperature. As to the method: In Vitro VEGFR2 Kinase Assay
50 ng/well VEGFR2 kinase (from InVitrogen) was mixed in buffer (14.5 μL/well). To this were added, 0.5 μL of the compound of this invention at a concentration of 2.5% in DMSO. After incubatiuon for 5 minutes at room temperature, 5 μL of substrate (CSKtide, 400 nM) and 8 μL ATP were added. The mixture was incubated for 60 minutes at room temperature and 60 uL of binding reagent (beads) was added. After incubation overnight at room temperature, the plate was read with a LJL plate reader.

As usually defined, the IC50 is the point on the concentration scale where inhibition reaches its midpoint. Regarding `Nc1ncncc1-c1nc(-c2ccc(NC(=O)Nc3cccc(C(F)(F)F)c3)cc2)cs1` [Compound 1], the IC50 at 3 days came to 4000 nM in data set [1] and 900 nM in data set [2].
For `Nc1ncncc1-c1nc(-c2cccc(NC(=O)Nc3ccccc3)c2)cs1` [Compound 4], at VEGFR2 kinase, the IC50 stood at 10 nM. In addition, the half-maximal inhibitory concentration (IC50) at 3 days in data set [1] amounted to 6000 nM; in data set [2], 200 nM.
In the case of `Nc1ncncc1-c1nc(-c2cccc(NC(=O)c3ccc(F)cc3)c2)cs1` [Compound 5], the IC50 against VEGFR2 kinase stood at 30 nM. Further, the IC50 at 3 days in data set [1] was 30000 nM.
On to `Nc1ncncc1-c1nc(-c2cccc(NC(=O)c3cccc(Cl)c3)c2)cs1` [Compound 6, N-(3-(2-(4-aminopyrimidin-5-yl)thiazol-4-yl)phenyl)-3-chlorobenzamide], for which inhibition at VEGFR2 kinase was half-maximal at 20 nM (IC50). Further, the IC50 at 3 days in data set [1] was more than 50000 nM; in data set [2], 3000 nM.
In the case of `Nc1ncncc1-c1nc(-c2cccc(NC(=O)c3ccc(Cl)cc3)c2)cs1` [Compound 8], half-maximal inhibition at VEGFR2 kinase (IC50) was put at 70 nM. In addition, the IC50 at 3 days in data set [1] turned out to be 20000 nM; in data set [2], 300 nM.
Regarding `Nc1ncncc1-c1nc(-c2cccc(NC(=O)c3ccc(F)c(F)c3)c2)cs1` [Compound 9], it took 300 nM to reach half-maximal inhibition against VEGFR2 kinase (IC50). The IC50 at 3 days amounted to 50000 nM in data set [1] and 20000 nM in data set [2].
For `Nc1ncncc1-c1nc(-c2cccc(NC(=O)Nc3ccc(F)c(C(F)(F)F)c3)c2)cs1` [Compound 10], in that order: 20 nM, 2000 nM and 500 nM.
At VEGFR2 kinase, `Cc1ccc(NC(=O)Nc2cccc(-c3csc(-c4cncnc4N)n3)c2)cc1Cl` [Compound 11] displayed an IC50 of 10 nM. The IC50 at 3 days in data set [1] is 3000 nM.
On VEGFR2 kinase, `Nc1ncncc1-c1nc(-c2cccc(NC(=O)Nc3cccc(F)c3)c2)cs1` [Compound 12] registered an IC50 of 100 nM. The IC50 at 3 days in data set [1] came to 40000 nM; in data set [2], 100 nM.
With `Nc1ncncc1-c1nc(-c2cccc(NC(=O)c3ccc([N+](=O)[O-])cc3)c2)cs1` [Compound 13], the IC50 against VEGFR2 kinase was determined as 200 nM. In addition, the IC50 at 3 days in data set [1] and in data set [2] was more than 50000 nM in each case.
On to `COc1ccc(NC(=O)Nc2cccc(-c3csc(-c4cncnc4N)n3)c2)cc1` [Compound 14], for which, at VEGFR2 kinase, inhibition was half-maximal at 30 nM (IC50). The figures for the IC50 at 3 days in data set [1] and in data set [2] were 20000 nM and 300 nM, respectively.
On to `Nc1ncncc1-c1nc(-c2cccc(NC(=O)c3ccc(-c4ccccc4)cc3)c2)cs1` [Compound 15], for which half-maximal inhibition against VEGFR2 kinase (IC50) was put at 400 nM. Further, the IC50 at 3 days in data set [1] is 3000 nM; in data set [2], 1000 nM.
In the same order, the values of `Nc1ncncc1-c1nc(-c2cccc(NC(=O)Nc3ccc(Cl)cc3)c2)cs1` [Compound 16] are 4 nM, 10000 nM and 1000 nM.
As for `Nc1ncncc1-c1nc(-c2cccc(NC(=O)c3cccnc3)c2)cs1` [Compound 23], the half-inhibitory concentration (IC50) at VEGFR2 kinase amounted to 500 nM. This compound also showed a half-maximal inhibitory concentration (IC50) at 3 days in data set [1] of 10000 nM.
As for `Nc1ncncc1-c1nc(-c2cccc(NC(=O)c3ccncc3)c2)cs1` [Compound 24], the IC50 at 3 days in data set [1] was 30000 nM. In other words, the double-digit micromolar range.
`COc1ccccc1C(=O)Nc1cccc(-c2csc(-c3cncnc3N)n2)c1` [Compound 25] came in with an IC50 at VEGFR2 kinase of 300 nM. In data set [1], this compound had an IC50 at 3 days of 10000 nM.
In the same order, the values of `N#Cc1ccc(NC(=O)Nc2cccc(-c3csc(-c4cncnc4N)n3)c2)cc1` [Compound 29] are 60 nM and more than 50000 nM.
`N#Cc1cccc(NC(=O)Nc2cccc(-c3csc(-c4cncnc4N)n3)c2)c1` [Compound 30] returned an IC50 at VEGFR2 kinase of 400 nM. Besides, the IC50 at 3 days in data set [1] is more than 50000 nM.
Turning to `Nc1ncncc1-c1nc(-c2cccc(NC(=O)Nc3cccc(Cl)c3)c2)cs1` [Compound 31], the IC50 on VEGFR2 kinase is 60 nM. Further, in data set [1], the IC50 at 3 days was found to be 1000 nM.
On VEGFR2 kinase, `Nc1ncncc1-c1nc(-c2cccc(NC(=O)Nc3ccccc3[N+](=O)[O-])c2)cs1` [Compound 33] returned an IC50 of 50 nM. The same compound gave an IC50 at 3 days in data set [1] of more than 50000 nM.
In the same order, the values of `CCCCOC(=O)c1ccccc1NC(=O)Nc1cccc(-c2csc(-c3cncnc3N)n2)c1` [Compound 36] are 300 nM and 10000 nM.
For `CCc1cccc(C)c1NC(=O)Nc1cccc(-c2csc(-c3cncnc3N)n2)c1` [Compound 38], in that order: 200 nM and more than 50000 nM.
For `Nc1ncncc1-c1nc(-c2cccc(NC(=O)Cc3cccc(C(F)(F)F)c3)c2)cs1` [Compound 40], the midpoint of inhibition at VEGFR2 kinase, the IC50, lay at 100 nM. It took 7000 nM to reach half-maximal inhibition in data set [1] (IC50 at 3 days).
With `Cc1cccc(C(=O)Nc2cccc(-c3csc(-c4cncnc4N)n3)c2)c1` [Compound 41], inhibition against VEGFR2 kinase was half-maximal at 10 nM (IC50). Further, half-maximal inhibition in data set [1] (IC50 at 3 days) required 20000 nM.
For `CCOC(=O)c1cccc(NC(=O)Nc2cccc(-c3csc(-c4cncnc4N)n3)c2)c1` [Compound 42], in that order: 100 nM and 4000 nM.
The compound `CC(C)(O)c1cccc(NC(=O)Nc2cccc(-c3csc(-c4cncnc4N)n3)c2)c1` [Compound 43] registered an IC50 on VEGFR2 kinase of 20 nM. The IC50 at 3 days in data set [1] stood at 5000 nM.
For the compound `Nc1ncncc1-c1nc(-c2cccc(NC(=O)Nc3cccc(CO)c3)c2)cs1` [Compound 44], the IC50 against VEGFR2 kinase came out at 30 nM. Moreover, 30000 nM corresponded to half-maximal inhibition in data set [1] (IC50 at 3 days).
On VEGFR2 kinase, `Nc1ncncc1-c1nc(-c2cccc(NC(=O)Cc3ccccc3)c2)cs1` [Compound 45] came in with an IC50 of 40 nM. In data set [1], this compound had an IC50 at 3 days of 30000 nM.
On VEGFR2 kinase, `Cc1nc(-c2cccc(NC(=O)Nc3cccc(-c4csc(-c5cncnc5N)n4)c3)c2)no1` [Compound 47] showed an IC50 of 90 nM. The IC50 at 3 days in data set [1] is more than 50000 nM.
In the same order, the values of `Cc1cccc(NC(=O)c2cccc(-c3csc(-c4cncnc4N)n3)c2)c1` [Compound 49] are 400 nM and 10000 nM.
For `CCOC(=O)CNC(=O)Nc1cccc(-c2csc(-c3cncnc3N)n2)c1` [Compound 59], in that order: 300 nM and 30000 nM.
In turn, `CCNC(=O)Nc1cccc(-c2csc(-c3cncnc3N)n2)c1` [Compound 60] had an IC50 against VEGFR2 kinase of 80 nM. This compound also yielded an IC50 at 3 days in data set [1] of more than 50000 nM.
As to `CC(=O)Nc1cccc(-c2csc(-c3cncnc3N)n2)c1` [Compound 61], the IC50 on VEGFR2 kinase amounted to 300 nM. This compound came in with an IC50 at 3 days in data set [1] of 40000 nM.
Consider `Nc1ncncc1-c1nc(-c2cccc(NC(=O)C3CCCCC3)c2)cs1` [Compound 62], for which the IC50 against VEGFR2 kinase turned out to be 20 nM. For the same compound, the IC50 at 3 days in data set [1] was more than 50000 nM.
In the same order, the values of `Nc1ncncc1-c1nc(-c2cccc(NC(=O)NC3CCCC3)c2)cs1` [Compound 63] are 70 nM and 7000 nM.
`Nc1ncncc1-c1nc(-c2cccc(NC(=O)C3CCCC3)c2)cs1` [Compound 64]: 300 nM corresponded to half-maximal inhibition against VEGFR2 kinase (IC50). The compound also showed an IC50 at 3 days in data set [1] of more than 50000 nM.
In the same order, the values of `Nc1ncncc1-c1nc(-c2cccc(NC(=O)CN3CCCCC3)c2)cs1` [Compound 67] are 300 nM and 10000 nM.
In the same order, the values of `Nc1ncncc1-c1nc(-c2cccc(NC(=O)N3CCCCC3)c2)cs1` [Compound 68] are 200 nM and 20000 nM.
`Nc1ncncc1-c1nc(-c2cccc(NC(=O)N3CCC(O)CC3)c2)cs1` [Compound 69] had an IC50 against VEGFR2 kinase of 400 nM. Besides, the IC50 at 3 days in data set [1] is 4000 nM.
